Measurements taken from patent publication US5837219A, “Labelled acyl-L-carnitine and diagnostic agent” (Japan Science and Technology Corporation, priority 1995, dated 1998).
“Also recorded” adds a separate entry of the source.

How the values were obtained:
[1] = PET uptake of labelled compounds into the brain of anesthetized rhesus monkeys after intravenous administration; type: in vivo, rhesus monkey; conditions: i.v.; for uptake value into the brain: rhesus monkey under anesthesia, whole brain (WB 9), FIG. 1
Excerpt: ACN, ACM, CRN and ACC prepared in Examples 1, 3 and 5 in equal amounts were intravenously administered to rhesus monkeys under anesthesia, respectively, at intervals of two hours, and the uptake value of those labelled compounds into the brain (whole brain: WB 9) and into the temporal muscle (TEM 11) was traced with time by the use of PET. The uptake value was obtained by the following calculation: [formula]

[2] = PET uptake of ACM into the whole brain of a normal volunteer, rest and task condition; type: in vivo, human (normal volunteer); conditions: i.v., FIG. 2
Experimental: ACM synthesized in Example 3 was intravenously administered to a normal volunteer, and the uptake value of ACM into the whole brain was measured by use of PET in both the rest condition (WR 9) and task condition (calculation task, memory task: WB9-TASK).

[3] = PET uptake of ACM into the whole brain, normal volunteers versus CFS patients; type: in vivo, human (normal volunteers; conditions: i.v., normal n=5, CFS n=6 (FIG. 3: n=5)
Experimental: (§1) ACM synthesized in Example 1 was intravenously administered to normal volunteers (n=5) and CFS patients (n=6), and the ACM uptake values into the whole brain and visual cortex were measured with time by means of PET.

[4] = PET uptake of ACM into the visual cortex, normal volunteers versus CFS patients; type: in vivo, human (normal volunteers; conditions: i.v.
Experimental: as §1

[5] = ACM uptake value in blood plasma (hematocrit tube and imaging plate), normal volunteers versus CFS patients; type: in vivo, human (normal volunteers; conditions: normal n=5, CFS n=6, FIG. 6
Experimental: (§2) Blood was sampled from the normal volunteers and the CFS patients and the ACM uptake values in the blood plasma and blood cells thereof was measured by the combined method of hematocrit tube and imaging plate.

[6] = ACM uptake into erythrocytes and erythrocyte/blood plasma ratio (hematocrit tube and imaging plate), normal volunteers versus CFS patients; type: in vivo, human (normal volunteers
Experimental: as §2

In the case of `CC(=O)O[C@H](CC(=O)[O-])C[N+](C)(C)[11CH3]` [ACC, acetyl-L-carnitine with the same label], the “uptake value into the brain” value [1] is reported as “not taken up into the brain almost at all”.
For `C[N+](C)(C)C[C@@H](CC(=O)[O-])OC([11CH3])=O` [ACM, Acetyl-L-carnitine with the ^11 C-labelled secondary carbon atom of acetyl group], the “uptake value into the brain” value [1] was “excellent”, the “change of brain uptake with time” value ([1]; rhesus monkey, up to 60 minutes after the administration) was “almost linearly increased up to 60 minutes after the administration” and the “uptake into the whole brain in the task condition relative to rest” value ([2]; calculation and memory task versus rest) was “about twice”. For the same compound, the “uptake into the whole brain with time” value ([2]; rest condition) was “taken up with time even during rest condition”, the “increase with time in the ACM uptake value into the whole brain, CFS patients versus normal volunteers” value [3] was “significantly lower than that in the normal volunteers” and the “difference between CFS patients and normal volunteers in ACM uptake, visual cortex versus whole brain” value ([4]; FIG. 3 and FIG. 4) was “particularly observed in the visual cortex than in the whole brain”. The “increase with time in the ACM uptake value into the visual cortex, CFS patients versus normal volunteers” value ([4]; normal n=5, CFS n=6, FIG. 4) was “significantly lower than that in the normal volunteers”, the “ACM uptake value in blood plasma, course with time, normal volunteers and CFS patients” value [5] was “almost the same course; also recorded: no difference” and the “ratio erythrocyte/blood plasma of ACM uptake value, increase with time, CFS patients” value ([6]; CFS patients n=2, FIG. 7) was “inhibited in the CFS patients”. The “ACM uptake value into erythrocyte, CFS patients versus normal volunteers” value ([6]; inferred from erythrocyte/blood plasma ratio and unchanged plasma uptake) was “significantly lower than that in the normal volunteers” and the “ratio erythrocyte/blood plasma of ACM uptake value, change with time, normal subjects” value ([6]; normal subjects n=2, FIG. 7) was “increased with time in the normal subjects”.
In the case of `C[11C](=O)O[C@H](CC(=O)[O-])C[N+](C)(C)C` [ACN, Acetyl-L-carnitine with ^11 C-labelled primary carbon atom of acetyl group], the “uptake value into the brain” value [1] is reported as “taken up into the brain only slightly”.
For `C[N+](C)([11CH3])C[C@H](O)CC(=O)[O-]` [CRN, L-carnitine with the ^11 C-labelled N-methyl carbon atom of carnitine, reference compound], the “uptake value into the brain” value [1] was “not taken up into the brain almost at all”.
